Among the data in ChEMBL document CHEMBL1150547, “-Phenoxyphenylacetic acid derived angiotensin II antagonists with low nanomolar AT1/AT2 receptor subtype affinity (Part II)” (Bioorg Med Chem Lett, 1995) are IC50 values, retold here.

pIC50: −log10 of the molar value.

Test [1] addresses T1, Type-2 angiotensin II receptor (Rattus norvegicus, UniProt P35351).
T1 sequence (P35351 whole entry): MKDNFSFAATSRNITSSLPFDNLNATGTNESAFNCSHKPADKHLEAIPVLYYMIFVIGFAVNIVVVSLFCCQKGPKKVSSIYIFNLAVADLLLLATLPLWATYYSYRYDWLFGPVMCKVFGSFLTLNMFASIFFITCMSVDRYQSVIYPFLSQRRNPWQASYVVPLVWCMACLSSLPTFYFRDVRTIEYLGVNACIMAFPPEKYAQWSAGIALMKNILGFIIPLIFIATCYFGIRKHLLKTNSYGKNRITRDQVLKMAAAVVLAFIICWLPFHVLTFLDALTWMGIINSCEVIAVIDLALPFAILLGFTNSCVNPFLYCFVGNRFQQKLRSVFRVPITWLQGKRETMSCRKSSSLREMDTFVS
As to the kind of experiment: Tested for its ability to displace the specific binding ligand [125I]-Sar 1,lle8-AlI from rat midbrain membrane (AT2 receptor). Type of test: tissue-based.

The target in test [2] is T2, Type-1 angiotensin II receptor (Oryctolagus cuniculus, UniProt P34976).
T2 sequence (P34976 whole entry): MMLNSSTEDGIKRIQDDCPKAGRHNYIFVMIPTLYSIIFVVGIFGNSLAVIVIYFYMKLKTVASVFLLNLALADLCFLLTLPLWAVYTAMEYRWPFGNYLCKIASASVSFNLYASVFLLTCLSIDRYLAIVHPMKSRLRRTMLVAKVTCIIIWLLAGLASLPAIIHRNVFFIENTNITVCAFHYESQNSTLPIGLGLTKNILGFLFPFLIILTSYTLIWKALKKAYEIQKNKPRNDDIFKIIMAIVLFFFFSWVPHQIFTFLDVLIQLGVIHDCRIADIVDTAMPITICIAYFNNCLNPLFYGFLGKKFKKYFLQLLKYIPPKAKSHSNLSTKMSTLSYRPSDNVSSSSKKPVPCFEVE
Kind of test: Tested for its ability to displace the specific binding ligand [125I]-Sar 1,lle8-AlI from rabbit aortic membrane (AT1 receptor).

What is called pIC50 is the IC50 on a negative log10 scale, so that one unit is a factor of ten. A high value points to a low IC50. In the case of `CCc1nc2c(C)cc(C)nc2n1Cc1ccc(OC(C(=O)O)c2ccccc2)c(C)c1` (centres undefined), the pIC50 in test [1] is 6.03; in test [2] it was 7.85.

On to `CCCCc1nc2ccc(C)cc2c(=O)n1Cc1ccc(OC(C(=O)O)c2ccccc2)cc1` (centres undefined), for which the values for the pIC50 in test [1] and in test [2] were 6.12 and 6.59, respectively.

In the case of `CCc1nc2c(C)cc(C)nc2n1Cc1ccc(OC(C(=O)O)c2ccccc2)c(C(C)(C)C)c1` (centres undefined), the pIC50 in test [1] is 6.52; in test [2] it was 7.30.

On to `CCCc1cc(Cn2c(CC)nc3c(C)cc(C)nc32)ccc1OC(C(=O)O)c1ccccc1OC` (centres undefined), for which the pIC50 was 5.92 in test [1] and 8.02 in test [2].

In the case of `CCOc1cc(Cn2c(CC)nc3c(C)cc(C)nc32)ccc1OC(C(=O)O)c1ccccc1` (centres undefined), the negative logarithm of the IC50 (pIC50) was 5.92 in test [1] and 6.85 in test [2].

With `CCc1nc2c(C)cc(C)nc2n1Cc1cc(Cl)c(OC(C(=O)O)c2ccccc2)c(OC)c1` (centres undefined), the pIC50 was 5.11 in test [1] and 7.80 in test [2].

Regarding `CCc1nc2c(C)cc(C)nc2n1Cc1ccc(OC(C(=O)O)c2ccccc2)c(Cl)c1` (centres undefined), the pIC50 was 6.14 in test [1] and 7.82 in test [2].

As for `CCc1nc2c(C)cc(C)nc2n1Cc1ccc(OC(C(=O)O)c2ccccc2C)cc1` (centres undefined), the negative logarithm of the IC50 (pIC50) is 5.28 in test [1] and 8.22 in test [2].

As for `CCCc1cc(Cn2c(CC)nc3c(C)cc(C)nc32)ccc1OC(C(=O)O)c1ccccc1C` (centres undefined), the pIC50 in test [1] was 5.62; in test [2], 7.96.

On to `C=CCc1cc(Cn2c(CC)nc3c(C)cc(C)nc32)ccc1OC(C(=O)O)c1ccccc1` (centres undefined), for which the pIC50 in test [1] was 6.57; in test [2] it was 7.70.

Regarding `CCc1nc2c(C)cc(C)nc2n1Cc1ccc(OC(C(=O)O)c2ccccc2C)c(Cl)c1` (centres undefined), the pIC50 in test [1] was 5.77; in test [2], 8.47.

Consider `CCc1nc2c(C)cc(C)nc2n1Cc1ccc(OC(C(=O)O)c2ccccc2)c(C(C)C)c1` (centres undefined), for which the negative-log IC50 (pIC50) in test [1] was 5.48; in test [2], 7.52.

With `CCc1nc2c(C)cc(C)nc2n1Cc1cc(Cl)c(OC(C(=O)O)c2ccccc2)c(Cl)c1` (centres undefined), the pIC50 in test [1] is 5.05; in test [2], 7.68.

With `CCCc1nc2c(C)ccnc2n1Cc1ccc(OC(C(=O)O)c2ccccc2)cc1` (centres undefined), the negative-log IC50 (pIC50) in test [1] was 5.47; in test [2] it was 7.19.

Consider `CCCc1cc(Cn2c(CC)nc3c(C)cc(C)nc32)ccc1OC(C(=O)O)c1ccccc1` (centres undefined), for which the results for the pIC50 in test [1] and in test [2] were 7.33 and 7.96, respectively.

With `CCc1nc2c(C)cc(C)nc2n1Cc1ccc(OC(C(=O)O)c2ccccc2)c(C(=O)c2ccccc2)c1` (centres undefined), the negative-log IC50 (pIC50) in test [1] was 7.22; in test [2], 6.92.

In the case of `CCc1nc2c(C)cc(C)nn2c1Cc1ccc(OC(C(=O)O)c2ccccc2)cc1` (centres undefined), the pIC50 is 5.52 in test [1] and 7.16 in test [2].

Consider `CCc1nc2c(C)cc(C)nc2n1Cc1ccc(OC(C(=O)O)c2ccccc2Cl)cc1` (centres undefined), for which the pIC50 was 4.82 in test [1] and 8.00 in test [2].

With `CCc1nc2c(C)cc(C)nc2n1Cc1ccc(OC(C(=O)O)c2ccccc2)cc1` (centres undefined), the pIC50 was 5.70 in test [1] and 7.54 in test [2].

As for `CCc1nc2c(C)cc(C)nc2n1Cc1ccc(OC(C(=O)O)c2ccccc2)c(Cc2ccccc2)c1` (centres undefined), the pIC50 was 6.10 in test [1] and 7.02 in test [2].

As to `CCc1cc(Cn2c(CC)nc3c(C)cc(C)nc32)ccc1OC(C(=O)O)c1ccccc1` (centres undefined), the pIC50 in test [1] was 6.39; in test [2], 7.92.

`CCCc1cc(Cn2c(CC)nc3c(C)cc(C)nc32)ccc1OC(C(=O)O)c1ccccc1Cl` (centres undefined): the results for the pIC50 in test [1] and in test [2] were less than 6.00 and 8.10, respectively.

`C=CCc1cc(Cn2c(CC)nc3c(C)cc(C)nc32)cc(Cl)c1OC(C(=O)O)c1ccccc1` (centres undefined): the results for the pIC50 in test [1] and in test [2] were 6.12 and 8.66, respectively.

On to `CCCCc1nc2ccccc2n1Cc1ccc(OC(C(=O)O)c2ccccc2)cc1` (centres undefined), for which the pIC50 in test [1] is 5.70; in test [2], 7.03.

As to `CCCCc1cc(Cn2c(CC)nc3c(C)cc(C)nc32)ccc1OC(C(=O)O)c1ccccc1` (centres undefined), the pIC50 in test [1] was 6.85; in test [2], 7.92.

As to `CCc1nc2c(C)cc(C)nc2n1Cc1ccc(OC(C(=O)O)c2ccccc2)c(OC)c1` (centres undefined), the pIC50 is 5.54 in test [1] and 6.77 in test [2].

For the molecule `CCc1nc2c(C)cc(C)nc2n1Cc1ccc(OC(C(=O)O)c2ccccc2)c(C(C)=O)c1` (centres undefined), the pIC50 in test [1] is 6.21; in test [2] it was 7.21.
